Data as given in patent publication US20160237450A1, “METHOD FOR ENHANCING DROUGHT TOLERANCE IN PLANTS” (Plant Response Biotech S.L., priority 2015, published 2016).

Experiments:
Type in all cases: in vivo
[1] = tested on: tomato plants ('Moneymaker'); assay: Tomato plant survival under extreme drought
Procedure: For each drought or limited water experiment 480 seeds (of either pepper, barley, tomato, cucumber or corn) were sown, producing 384 plants in 512 cm^3 pots (4 plants per pot). Plants were grown under chamber conditions at 21° C. for 3 weeks. Then, the plants were moved to a greenhouse, where average temperature was 25° C. to 28° C. Spray and irrigation treatments as described herein were done when the plants had two extended leaves and the next pair of leaves were coming up.
Treatments: Twelve pots (containing 48 plants) were irrigated with 40 ml of either: water, 0.1 g/L TMAO di-hydrate solution, 1.0 g/L TMAO di-hydrate solution, or 5.5 g/L TMAO di-hydrate solution. Another set of 12 pots containing 48 plants were sprayed with 40 ml of either water (3.3 ml in average per pot), a solution containing 0.1 g/L TMAO di-hydrate solution, 1.0 g/L TMAO di-hydrate, or 5 g/L, or 10 g/L TMAO di-hydrate. Further sets of 12 pots containing 48 plants were both sprayed with each initial solution TMAO di-hydrate solution and further irrigated with the same TMAO di-hydrate solutions used in the control water sprayed plants. All pots were also watered with 40 ml of water. The sprayed plants were watered with the same volume of water as the “irrigated plants). The pots were located on plastic glass to maintain constant moisture and to avoid liquid spillage during watering. Trays containing the pots were located on greenhouse tables. The distribution of the trays on the table and the position on the pots in the tray was changed every week to avoid position effects.
After the treatments described above, the plants were not watered until the pots completely lost their moisture, taking about 4 to 8 days depending on the season, at which point the plants were extremely wilted for the extreme drought experiments. The plants were then watered once with solutions containing the different amounts of TMAO di-hydrate (0.1 g/L, 1.0 g/L, 5 g/L, or 10 g/L) or just water, after which the plants were left to lose their moisture completely again for three consecutive cycles of watering after wilting. For the “extreme drought” experiments plants were allowed to wilt severely before watering and then the plant survival rate was recorded and analyzed.
TMAO di-hydrate applied exogenously, which increases the endogenous content of TMAO as if the plants were overexpressing an FMO protein at least 4 times, increases tomato plant survival under extreme drought conditions, where plants were allowed to fully wilt after three water-wilt cycles. Moneymaker tomato seeds were sown, grown and treated as described above. No statistical differences between modes of application (sprayed or TMAO di-hydrate watered) were observed on this experiment.

[2] = tested on: corn plants ('FAO700'); assay: Corn number of green leaves under limited water; settings: 30% water
Procedure: (§1) In order to determine the drought or drought stress tolerance after seed treatments with TMAO di-hydrate and germination in the presence of TMAO di-hydrate, barley “Hispanic” seeds, corn “FAO700” seeds, and “Sambro” sunflower seeds were surface sterilized for 3 minutes in ethanol 70%, then rinsed twice and finally included in a pre-treatment solution of 1 g/L TMAO di-hydrate solution (or just water) under shaking for 3 hours at a dose of 1 litre per Kg of seeds. Then, the seeds were sown in randomized plots of 10 sqm in a surface of 2.000 sqm. Chlorophyll content was measured 1 month before harvest. In corn irrigation was applied in half of the plots while the other half only received an initial establishment watering. The barley plots received 200 l of rain per m^2 through the growing season. Some of the plots received a second spray treatment with 1 g/liter of TMAO. […] At least 3 independent plants were treated per experiment.
TMAO di-hydrate applied exogenously which increases the endogenous content of TMAO as if the plants were overexpressing an FMO protein at least 4 times increases plant production in corn under limited water irrigation. Plants were irrigated with 30% of the water they normally require. ‘FAO700’ corn seeds were sown, grown and treated as described. Spray treatments with 1 g/L TMAO increased plant number of green leaves.

[3] = tested on: barley plants ('Hispanic'); assay: Barley field seed production without irrigation; settings: no external irrigation
Procedure: as §1
TMAO di-hydrate applied exogenously which increases the endogenous content of TMAO as if the plants were overexpressing an FMO protein at least 4 times increases seed production in barley grown in the field without irrigation. ‘Hispanic” barley seeds were sown, grown and treated as described. Both, seed treatments (each Kg of seed was soaked in 1 liter of a 1 g/1 L TMAO di-hydrate solution, although smaller volumes of this solution are also effective) and a combination of seed and spray treatments with 1 g/L TMAO di-hydrate increased plant grain production. The field experienced 200 l/m^2 of rain water in total through the season.

[4] = tested on: sunflower plants; assay: Sunflower field chlorophyll content and seed production after seed treatment; settings: seed treatment 1 g/l/Kg, natural stress
Procedure: as §1
TMAO di-hydrate applied exogenously which increases the endogenous content of TMAO as if the plants were overexpressing an FMO protein at least 4 times increases plant production in sunflower plants grown in the field without external irrigation. ‘Sambra” sunflower seeds were sown, grown and treated as described above. Seed treatment (1 g/l/Kg TMAO) increased plant chlorophyll content and seed production. […] Both chlorophyll and weight differences between control and TMAO groups are statistically significant. Relative chlorophyll content values are obtained by optical absorbance in two different wavebands: 653 nm (chlorophyll) and 931 nm (Near Infra-Red).

[5] = 1 g TMAO/1 Kg seed + 1 g/L spray

C[N+](C)(C)[O-].O.O [TMAO di-hydrate, trimethylamine N-oxide di-hydrate]
appearance of treated plants compared to untreated control ([1]; irrigated with 5.5 g/L, 24 hours after drought recovery (FIG. 9)): extremely healthy
SURVIVAL RATE (%) ([1]; irrigation 0.1 g/L, initial spray 0.1 g/L): 12.5 ± 8.5%
SURVIVAL RATE (%) ([1]; irrigation 0.1 g/L, initial spray 1 g/L): 41.6 ± 8.5%
SURVIVAL RATE (%) ([1]; irrigation 0.1 g/L, initial spray 5 g/L): 68.9 ± 8.5%
SURVIVAL RATE (%) ([1]; irrigation 0.1 g/L, initial spray water): 16.6 ± 8.5%
SURVIVAL RATE (%) ([1]; irrigation 1 g/L, initial spray 0.1 g/L): 0.0 ± 7.5%
SURVIVAL RATE (%) ([1]; irrigation 1 g/L, initial spray 1 g/L): 29.1 ± 7.5%
SURVIVAL RATE (%) ([1]; irrigation 1 g/L, initial spray 5 g/L): 33.3 ± 7.5%
SURVIVAL RATE (%) ([1]; irrigation 1 g/L, initial spray water): 4.1 ± 7.5%
SURVIVAL RATE (%) ([1]; irrigation 5 g/L, initial spray 0.1 g/L): 12.5 ± 8.0%
SURVIVAL RATE (%) ([1]; irrigation 5 g/L, initial spray 1 g/L): 16.6 ± 8.0%
SURVIVAL RATE (%) ([1]; irrigation 5 g/L, initial spray 5 g/L): 50.0 ± 8.0%
SURVIVAL RATE (%) ([1]; irrigation 5 g/L, initial spray water): 8.3 ± 8.0%
SURVIVAL RATE (%) ([1]; irrigation all regimes, initial spray 0.1 g/L): 12.5 ± 4.1%
SURVIVAL RATE (%) ([1]; irrigation all regimes, initial spray 1 g/L): 37.5 ± 4.1%
SURVIVAL RATE (%) ([1]; irrigation all regimes, initial spray 5 g/L): 56.6 ± 4.1%
SURVIVAL RATE (%) ([1]; irrigation water, initial spray 0.1 g/L): 29.1 ± 9.1%
SURVIVAL RATE (%) ([1]; irrigation water, initial spray 1 g/L): 62.5 ± 9.1%
SURVIVAL RATE (%) ([1]; irrigation water, initial spray 5 g/L): 74.2 ± 9.1%
increase in biomass production shown in green leaf production over untreated plants with 30% irrigation ([2]; 1 g/L (rows 3 and 4: spray, seed)): 47%
AVERAGE NUMBER OF GREEN LEAVES ([2]; 1 g/L seed treatment): 8.50 ± 0.41
AVERAGE NUMBER OF GREEN LEAVES ([2]; 1 g/L spray): 8.50 ± 0.25
% Control (seed production) ([3]; 1 g TMAO/1 Kg seed): 18%
Average number of Grams per square meter (seed production) ([3]; 1 g TMAO/1 Kg seed): 225.98 ± 11.89 Grams per square meter
% Control (seed production) [3, 5]: 35%
Average number of Grams per square meter (seed production) [3, 5]: 256.36 ± 12.78 Grams per square meter
% GAIN/LOSS RESPECT TO THE CONTROL, chlorophyll content [4]: 30%
% GAIN/LOSS RESPECT TO THE CONTROL, weight of seeds from 1 plant [4]: 77.7%
C[…] (OD663/OD931, AVERAGE VALUE) [4]: 21.17 ± 0.54
WEIGHT (GRAMS) OF SEEDS FROM 1 PLANT, AVERAGE VALUE [4]: 161.3 ± 13.1 GRAMS
